Among the data in patent US20240034729A9, “HETEROCYCLIC COMPOUND, INTERMEDIATE, PREPARATION METHOD THEREFOR AND APPLICATION THEREOF” (WUHAN LL SCIENCE AND TECHNOLOGY DEVELOPMENT CO., LTD., priority 2018, published 2024) are IC50 values, retold here.

This test concerns the target hP2X3 (human purinergic P2X receptor subtype 3) (Homo sapiens (Human), UniProt P56373). The experiment in a line: FLIPR calcium assay, hP2X3 expressed in HEK293 cells. The class given is cell-based. Particulars: read-out: P2X3 IC50.
Where [1] appears, read: HEK293 cells expressing hP2X3, agonist BZ-ATP 2.5 μM, class symbols.

Read-outs that look alike come from different tables or passages of the source.

Sequence of hP2X3 (human purinergic P2X receptor subtype 3) (P56373 whole entry): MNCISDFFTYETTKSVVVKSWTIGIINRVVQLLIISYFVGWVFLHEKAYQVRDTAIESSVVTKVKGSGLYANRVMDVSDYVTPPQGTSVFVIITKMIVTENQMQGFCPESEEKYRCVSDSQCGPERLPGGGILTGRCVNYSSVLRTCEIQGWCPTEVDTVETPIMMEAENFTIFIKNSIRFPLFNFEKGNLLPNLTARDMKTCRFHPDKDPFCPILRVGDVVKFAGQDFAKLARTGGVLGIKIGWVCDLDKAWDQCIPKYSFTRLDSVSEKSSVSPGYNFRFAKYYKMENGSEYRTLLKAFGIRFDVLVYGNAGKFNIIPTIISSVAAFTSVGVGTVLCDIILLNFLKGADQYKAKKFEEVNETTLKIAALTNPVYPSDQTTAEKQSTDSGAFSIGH

For the molecule `COC(=O)N1CCO[C@@H](Cc2c(-c3cnc(NC(C)=O)[nH]3)nc3cc(C)ccn23)C1` [Compound 1], under setting [1], the IC50 lay in the range of 200 to 5000 nM. On the same count and under the same terms, for `CNC(=N)c1cc(F)c(-c2nc3cc(C)ccn3c2C[C@H]2CN(C(=O)OC)CCO2)c(F)c1` [Compound 8, methyl (S)-2-((2-(2,6-difluoro-4-(N-methylcarbamimidoyl)phenyl)-7-methylimidazo[1,2-a]pyridin-3-yl)methyl)morpholine-4-carboxylate] the value was 200 to 5000 nM; for `COC(=O)N1CCO[C@@H](Cc2c(-c3c(F)cc(-c4nccn4C)cc3F)nc3cc(C)ccn23)C1` [Compound 9, methyl (S)-2-((2-(2,6-difluoro-4-(1-methyl-1H-imidazol-2-yl)phenyl)-7-methylimidazo[1,2-a]pyridin-3-yl)methyl)morpholine-4-carboxylate], 200 to 5000 nM.

Regarding `COC(=O)N1CCO[C@@H](Cc2c(-c3c(F)cc(C(C)=O)cc3F)nc3cc(C)ccn23)C1` [Compound 14, methyl (S)-2-((2-(4-acetyl-2,6-difluorophenyl)-7-methylimidazo[1,2-a]pyridin-3-yl)methyl)morpholine-4-carboxylate], the half-maximal inhibitory concentration (IC50) under setting [1] was 200 to 5000 nM. For `COC(=O)N1CCO[C@@H](Cc2c(-c3c(F)cc(-c4ccon4)cc3F)nc3cc(C)ccn23)C1` [Compound 16, methyl (S)-2-((2-(2,6-difluoro-4-(isoxazol-3-yl)phenyl)-7-methylimidazo[1,2-a]pyridin-3-yl)methyl)morpholine-4-carboxylate], the IC50 fell in the range of 10 to 50 nM. Regarding `CNC(=O)c1cc(F)c(-c2nc3cc(C)ccn3c2CC(N)=O)c(F)c1` [Compound 19, 4-(3-(2-amino-2-oxoethyl)-7-methylimidazo[1,2-a]pyridine)-3,5-difluorobenzoylmethylamine], the IC50 under setting [1] is 200 to 5000 nM. Same read-out and setting: for `CCOC(=O)N1CCO[C@@H](Cc2c(C(=O)Nc3cc(F)cc(F)c3)nc3cc(C)ccn23)C1` [Compound 20] the value was 200 to 5000 nM. Still for that read-out and setting: for `CNC(=O)c1ccc(-c2nc3cc(C)ccn3c2C[C@H]2CN(C(=O)OC)CCO2)s1` [Compound 21, methyl (S)-2-((7-methyl-2-(5-(methylcarbamoyl)thiophen-2-yl)imidazo[1,2-a]pyridin-3-yl)methyl)morpholine-4-carboxylate] the value was 200 to 5000 nM.

As to `CNC(=O)c1coc(-c2nc3cc(C)ccn3c2C[C@H]2CN(C(=O)OC)CCO2)c1F` [Compound 22], the IC50 under setting [1] was 200 to 5000 nM. Take `CNC(=O)c1csc(-c2nc3cc(C)ccn3c2C[C@H]2CN(C(=O)OC)CCO2)c1F` [Compound 23]: the IC50 under setting [1] lay in the range of 200 to 5000 nM. The same measure, in the same setting: for `CNC(=O)c1c[nH]c(-c2nc3cc(C)ccn3c2C[C@H]2CN(C(=O)OC)CCO2)c1F` [Compound 24] the value was 200 to 5000 nM. Take `COC(=O)N1CCO[C@@H](Cc2c(-c3c(F)cc(N4C(=O)C=CC4=O)cc3F)nc3cc(C)ccn23)C1` [Compound 28, methyl (S)-2-((2-(2,6-difluoro-4-(2,5-dioxo-2,5-dihydropyrrol-1-yl)phenyl)-7-methylimidazo[1,2-a]pyridin-3-yl)methyl)morpholine-4-carboxylate]: the IC50 lay within 10 to 50 nM.

Consider `COC(=O)N1CCO[C@@H](Cc2c(C3CCN(C(C)=O)CC3)nc3cc(C)ccn23)C1` [Compound 30, methyl (S)-2-((2-(1-acetylpiperidin-4-yl)-7-methylimidazo[1,2-a]pyridin-3-yl)methyl)morpholine-4-carboxylate], for which the IC50 lay in the range of 10 to 50 nM. On to `CNC(=O)c1cc(F)c(-c2nc3cc(C)ccn3c2CN2CCNC(=O)C2)c(F)c1` [Compound 31], for which the IC50 under setting [1] was 200 to 5000 nM. Still for that read-out and setting: for `CNC(=O)c1cc(F)c(-c2nc3cc(C)ccn3c2CN2CCN(C(=O)OC)CC2)c(F)c1` [Compound 32] the value was 200 to 5000 nM. In the case of `COC(=O)N1CCO[C@@H](Cc2c(-c3c(F)cc(-c4nc(Cl)c[nH]4)cc3F)nc3cc(C)ccn23)C1` [Compound 34, methyl (S)-2-((2-(4-(4-chloro-1H-imidazol-2-yl)-2,6-difluorophenyl)-7-methylimidazo[1,2-a]pyridin-3-yl)methyl)morpholine-4-carboxylate], the IC50 was less than 10 nM. On to `COC(=O)N1CCO[C@@H](Cc2c(-c3c(F)cc(O)cc3F)nc3cc(C)ccn23)C1` [Compound 35, methyl (S)-2-((2-(2,6-difluoro-4-hydroxyphenyl)-7-methylimidazo[1,2-a]pyridin-3-yl)methyl)morpholine-4-carboxylate], for which the IC50 under setting [1] fell in the range of 200 to 5000 nM.

For `CNC(=O)Oc1cc(F)c(-c2nc3cc(C)ccn3c2C[C@H]2CN(C(=O)OC)CCO2)c(F)c1` [Compound 36, methyl (S)-2-((2-(2,6-difluoro-4-(methylcarbamoyloxy)phenyl)-7-methylimidazo[1,2-a]pyridin-3-yl)methyl)morpholine-4-carboxylate], under setting [1], the 50% inhibitory concentration (IC50) lay within 10 to 50 nM. Turning to `COC(=O)N1CCO[C@@H](Cc2c(-c3c(F)cc(-c4nc(C(F)(F)F)c[nH]4)cc3F)nc3cc(C)ccn23)C1` [Compound 37, methyl (S)-2-((2-(2,6-difluoro-4-(4-trifluoromethyl-1H-imidazol-2-yl)phenyl)-7-methylimidazo[1,2-a]pyridin-3-yl)methyl)morpholine-4-carboxylate], the IC50 was less than 10 nM.

As to `COC(=O)N1CCO[C@@H](Cc2c(-c3c(F)cc(-c4nc(C#N)c[nH]4)cc3F)nc3cc(C)ccn23)C1` [Compound 38, methyl (S)-2-((2-(2,6-difluoro-4-(4-cyano-1H-imidazol-2-yl)phenyl)-7-methylimidazo[1,2-a]pyridin-3-yl)methyl)morpholine-4-carboxylate], the IC50 is less than 10 nM. Take `CNC(=O)c1cc(F)c(-c2[nH]c3cc(C)ccc3c2C[C@H]2CN(C(=O)OC)CCO2)c(F)c1` [Compound 39]: the IC50 under setting [1] lay within 200 to 5000 nM. The same measure, in the same setting: the figure for `CNC(=O)c1cc(F)c(-c2cc3cc(C)ccc3n2C[C@H]2CN(C(=O)OC)CCO2)c(F)c1` [Compound 40, methyl (S)-2-((2-(2,6-difluoro-4-(methylcarbamoyl)phenyl)-5-methyl-1H-indol-1-yl)methyl)morpholine-4-carboxylate] is 200 to 5000 nM; for `CNC(=O)c1cc(F)c(C2=CC3C=C(C)C=CN3N2C[C@H]2CN(C(=O)OC)CCO2)c(F)c1` (some centres unmarked) [Compound 41] it is 200 to 5000 nM. Consider `CNC(=O)c1cc(F)c(-c2nc3cc(C)ncn3c2C[C@H]2CN(C(=O)OC)CCO2)c(F)c1` [Compound 42, methyl (S)-2-((2-(2,6-difluoro-4-(methylcarbamoyl)phenyl)-7-methylimidazo[1,2-c]pyrimidin-3-yl)methyl)morpholine-4-carboxylate], for which the half-maximal inhibitory concentration (IC50) is less than 10 nM. With `CNS(=O)(=O)c1cc(F)c(-c2nc3cc(C)ccn3c2C[C@H]2CN(C(=O)OC)CCO2)c(F)c1` [Compound 43, methyl (S)-2-((2-(2,6-difluoro-4-(N-methylsulfamoyl)phenyl)-7-methylimidazo[1,2-a]pyridin-3-yl)methyl)morpholine-4-carboxylate], the half-inhibitory concentration (IC50) is less than 10 nM. Same read-out and setting: for `CNC(=O)c1cc(F)c(-c2nc3n(c2C[C@H]2CN(C(=O)OC)CCO2)CCC(C)C3)c(F)c1` (stereo partly drawn) [Compound 44, methyl (2S)-2-((2-(2,6-difluoro-4-(methylcarbamoyl)phenyl)-7-methyl-5,6,7,8-tetrahydroimidazo[1,2-a]pyridin-3-yl)methyl)morpholine-4-carboxylate] the value was less than 10 nM.

By IC50 is commonly meant the concentration needed to halve the response being measured.
